Patent publication US8618114B2 (priority 2008, dated 2013)
Structures can show the parent of a compound that is named as a salt. Each block holds one compound with its values, some of them ahead of it.

How the values were obtained:
[1] = biological target: T1, 5-HT6 receptor (Homo sapiens (Human), UniProt P50406); assay: functional assay for serotonin 5-HT6 receptor inhibition (serotonin-induced intracellular cAMP, LANCE cAMP kit, HEK 293 cells); assay type: cell-based; conditions: HEK 293 cells with expressed 5-HT6 receptor; reduction of serotonin-induced intracellular cAMP
T1 sequence (P50406 whole entry): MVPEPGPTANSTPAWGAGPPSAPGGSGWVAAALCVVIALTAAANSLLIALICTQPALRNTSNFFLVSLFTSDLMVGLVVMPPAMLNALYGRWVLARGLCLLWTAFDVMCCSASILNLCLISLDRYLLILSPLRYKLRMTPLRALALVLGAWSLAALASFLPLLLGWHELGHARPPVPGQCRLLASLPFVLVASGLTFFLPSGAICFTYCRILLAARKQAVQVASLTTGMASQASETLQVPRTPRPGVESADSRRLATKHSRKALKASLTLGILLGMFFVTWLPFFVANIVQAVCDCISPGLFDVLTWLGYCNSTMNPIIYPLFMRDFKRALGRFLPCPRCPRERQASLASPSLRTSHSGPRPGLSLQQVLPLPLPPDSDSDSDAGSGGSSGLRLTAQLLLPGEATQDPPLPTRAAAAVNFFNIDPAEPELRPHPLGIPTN
Method: Determination of antagonistic activity of compounds of the general formula 1 towards 5-HT6 receptors. Compounds of the general formula 1 were tested for their ability to prevent 5-HT6 receptors activation by serotonin. HEK 293 cells (cells of human embryo's kidney) with artificially expressed 5-HT6 receptor, activation of which by serotonin leads to increasing the concentration of intracellular cAMP, were used. The level of intracellular cAMP was determined using reagent kit LANCE cAMP (PerkinElmer) according to the method described by the manufacturer of the kit [http://las.perkinelmer.com/content/Manuals/MAN_LANCEcAMP384KitUser.pdf]. Effectiveness of the compounds was estimated by their ability to reduce the level of intracellular cAMP induced by serotonin. Table 4 presents IC50 values for the compounds of general formula 1 in the setting of functional assay for serotonin 5-HT6 receptor inhibition. The data given testify their moderate or high antagonistic activity.

[2] = biological target: T1, 5-HT6 receptor; assay: competitive radioligand binding ([3H] Lysergic acid diethylamide) to serotonin 5-HT6 receptors, HeLa cell membranes; conditions: read-out: IC50, competitive assay of serotonin 5-HT6 receptor inhibition; displacement of 1.5 nM [3H] Lysergic acid diethylamide, 120 min at 37° C.
Method: Determination of activity of the compounds of the general formula 1 in the setting of competitive binding to serotonin 5-HT6 receptors.
Screening of the disclosed compounds for their potential ability to interact with serotonin 5-HT6 receptors was carried out by method of radioligand binding. For this purpose membrane species were prepared from expressing recombinant human 5-HT6 receptors HeLa cells by means of their homogenization in glass homogenizer with subsequent separation of plasmatic membranes from cell nucli, mitochondria's and cell wreckages by differential centrifugation. Determination of tested compounds binding to 5-HT6 receptors was carried out according to the method described in [Monsma F J Jr, Shen Y, Ward R P, Hamblin M W and Sibley D R, Cloning and expression of a novel serotonin receptor with high affinity for tricyclic psychotropic drugs. […] After incubation the samples were filtered in vacuo on glass-microfiber filters G/F (Millipor, USA), filters were washed three times with cold solution of the medium and radioactivity was measured by scintillation counter MicroBeta 340 (PerkinElmer, USA). Nonspecific binding which made up 30% of overall binding was determined by incubation of membrane preparations with radioligand in the presence of 5 μM Serotonin (5-HT). Methiothepin was used as positive control. Binding of the tested compounds to the receptor was determined by their ability to displace the radioligand and expressed in percent of displacement. The percent of displacement was calculated according to the following equation:
[formula] wherein: TA—was overall radioactivity in the presence of radioligand only, CA—was radioactivity in the presence of radioligand and tested compound and NA—was radioactivity in the presence of radioligand and Serotonin (5 μM).

SMILES: CNc1nn2c(C)cc(CN(C)C)nc2c1S(=O)(=O)c1cccc(Cl)c1 [1.2.23(11).HCl]
- IC50 [1]: 67 nM

SMILES: CNc1nn2cccnc2c1S(=O)(=O)c1ccccc1 [1.2.1(1), 2-methylamino-3-phenylsulfonyl-pyrazolo[1,5-a]pyrimidine]
- IC50 [1]: 76 nM

SMILES: CNc1nn2c(N(C)CCN(C)C)cc(C)nc2c1S(=O)(=O)c1ccccc1 [1.2.12(12)]
- IC50 [1]: 1860 nM

SMILES: CSc1nn2cccnc2c1S(=O)(=O)c1cccc(Cl)c1 [1.1.1(3)]
- IC50 [1]: 473 nM

SMILES: CNc1nn2c(-c3ccccn3)cc(-c3ccccn3)nc2c1S(=O)(=O)c1ccccc1 [1.2(4)]
- IC50 [1]: 723 nM

SMILES: CSc1nn2ccc(C)nc2c1S(=O)(=O)c1ccc(F)c(Cl)c1 [1.1.2(5), 5-methyl-2-methylsulfanyl-3-(4-fluoro-3-chlorophenylsulfonyl)-pyrazolo[1,5-a]pyrimidine]
- IC50 [1]: 187 nM

SMILES: CNc1nn2c(C)c(Cl)c(C)nc2c1S(=O)(=O)c1ccccc1 [1.2(1)]
- IC50 [1]: 52 nM

SMILES: CNc1nn2c(C)c(CCCN)c(C)nc2c1S(=O)(=O)c1ccccc1 [1.2.22(4).HCl]
- IC50 [1]: 78 nM

SMILES: CNc1nn2c(N(C)CCN(C)C)cc(C)nc2c1S(=O)(=O)c1ccccc1 [1.2.12(11)]
- IC50 [1]: 172 nM

SMILES: CSc1nn2cccnc2c1S(=O)(=O)c1ccc(F)c(Cl)c1 [1.1.1(4)]
- IC50 [1]: 912 nM

SMILES: CSc1nn2cccnc2c1S(=O)(=O)c1ccc(F)cc1 [1.1.1(7)]
- IC50 [1]: 1870 nM

SMILES: CNc1nn2c(CCN(C)C)cc(C)nc2c1S(=O)(=O)c1ccccc1 [1.2.24(14).HCl]
- IC50 [1]: 899 nM

SMILES: CSc1nn2cccnc2c1S(=O)(=O)c1ccccc1 [1.1.1(1), 2-methylsulfanyl-3-phenylsulfonyl-pyrazolo[1,5-a]pyrimidine]
- IC50 [1]: 5200 nM

SMILES: CSc1nn2c(C)c(Oc3cccnc3)c(C)nc2c1S(=O)(=O)c1ccccc1 [1.1(7)]
- IC50 [1]: 514 nM

SMILES: CNc1nn2c(CN(C)C)cc(C)nc2c1S(=O)(=O)c1cccc(F)c1 [1.2.24(12).HCl]
- IC50 [1]: 35 nM

SMILES: CNc1nn2c(N3CCOCC3)cc(C)nc2c1S(=O)(=O)c1ccccc1 [1.2.12(5), 5-methyl-2-methylamino-7-(morfolin-4-yl)-3-phenylsulfonyl-pyrazolo[1,5-a]pyrimidine]
- IC50 [2]: 31 nM

SMILES: CNc1nn2c(N3CCOCC3)cc(C)nc2c1S(=O)(=O)c1ccccc1 [1.1.12(5)]
- IC50 [1]: 197 nM

SMILES: COCc1cc(C)n2nc(SC)c(S(=O)(=O)c3ccccc3)c2n1 [1.1.5(1), 7-methyl-2-methylsulfanyl-5-(methoxymethyl)-3-phenylsulfonyl-pyrazolo[1,5-a]pyrimidine]
- IC50 [1]: 414 nM

SMILES: CNc1nn2c(-c3cccnc3)ccnc2c1S(=O)(=O)c1ccccc1 [1.2.9(2), 2-methylamino-7-(pyridin-3-yl)-3-phenylsulfonyl-pyrazolo[1,5-a]pyrimidine]
- IC50 [1]: 1040 nM

SMILES: COc1cc(-c2ccccn2)nc2c(S(=O)(=O)c3ccccc3)c(SC)nn12 [1.1.8(2), 2-methylsulfanyl-7-methoxy-5-(pyridin-2-yl)-3-phenylsulfonyl-pyrazolo[1,5-a]pyrimidine]
- IC50 [1]: 30100 nM

SMILES: CSc1nn2c(CO)cc(C)nc2c1S(=O)(=O)c1ccccc1 [1.1.6(1), 7-(hydroxymethyl)-5-methyl-2-methylsulfanyl-3-phenylsulfonyl-pyrazolo[1,5-a]pyrimidine]
- IC50 [1]: 73 nM

SMILES: CNc1nn2c(C)cc(CN)nc2c1S(=O)(=O)c1ccc(F)cc1 [1.2.23(2).HCl]
- IC50 [1]: 37 nM

SMILES: CNc1nn2c(C)c(CC(=O)N(C)C)c(C)nc2c1S(=O)(=O)c1ccccc1 [1.2.19(1).CH3CO2H]
- IC50 [2]: 15.3 nM

SMILES: CNc1nn2c(C)cc(CN(C)C)nc2c1S(=O)(=O)c1cccc(F)c1 [1.2.23(12).HCl]
- IC50 [1]: 70 nM

SMILES: CSc1nn2cccnc2c1S(=O)(=O)c1cccc(C)c1 [1.1.1(6)]
- IC50 [1]: 2200 nM

SMILES: CSc1nn2ccc(C)nc2c1S(=O)(=O)c1ccccc1 [1.1.2(1), 5-methyl-2-methylsulfanyl-3-phenylsulfonyl-pyrazolo[1,5-a]pyrimidine]
- IC50 [1]: 450 nM

SMILES: CSc1nn2c(C)ccnc2c1S(=O)(=O)c1ccc(F)c(Cl)c1 [1.1.3(5), 7-methyl-2-methylsulfanyl-3-(4-fluoro-3-chlorophenylsulfonyl)-pyrazolo[1,5-a]pyrimidine]
- IC50 [1]: 156 nM

SMILES: CNc1nn2c(C)cc(CN(C)C)nc2c1S(=O)(=O)c1ccccc1 [1.2.23(10).HCl]
- IC50 [1]: 60 nM

SMILES: CNc1nn2c(C)c(CCN(C)C)c(C)nc2c1S(=O)(=O)c1ccccc1 [1.2.22(14).HCl]
- IC50 [1]: 56.4 nM

SMILES: CCOC(=O)Cc1c(C)nc2c(S(=O)(=O)c3ccccc3)c(NC(C)C)nn2c1C [1.2.13(3)]
- IC50 [2]: 1.28 nM

SMILES: CNc1nn2c(-c3cccnc3)cc(C)nc2c1S(=O)(=O)c1ccccc1 [1.2.9(7), 5-methyl-2-methylamino-7-(pyridin-3-yl)-3-phenylsulfonyl-pyrazolo[1,5-a]pyrimidine]
- IC50 [1]: 341 nM

More lines, in order of falling IC50 [1], values ahead:

- IC50 [1]: 33 nM
SMILES: CNc1nn2c(CN(C)C)cc(C)nc2c1S(=O)(=O)c1cccc(Cl)c1 [1.2.24(11).HCl]

- IC50 [1]: 30 nM
SMILES: CNc1nn2c(CCN)cc(C)nc2c1S(=O)(=O)c1ccccc1 [1.2.24(3).HCl]

- IC50 [1]: 26 nM
SMILES: CNc1nn2c(C)c(CN(C)C)c(C)nc2c1S(=O)(=O)c1ccccc1 [1.2.22(10).HCl]

- IC50 [1]: 25.2 nM
SMILES: CNc1nn2c(C)c(CN)c(C)nc2c1S(=O)(=O)c1cccc(F)c1 [1.2.22(6).HCl]

- IC50 [1]: 22 nM
SMILES: CNc1nn2c(C)c(CN(C)C)c(C)nc2c1S(=O)(=O)c1cccc(Cl)c1 [1.2.22(11).HCl]

- IC50 [1]: 22 nM
SMILES: CNc1nn2c(CN)cc(C)nc2c1S(=O)(=O)c1ccc(F)cc1 [1.2.24(2).HCl]

- IC50 [1]: 21 nM
SMILES: CNc1nn2c(CN(C)C)cc(C)nc2c1S(=O)(=O)c1ccccc1 [1.2.24(10).HCl]

- IC50 [1]: 16 nM
SMILES: CNc1nn2ccc(C)nc2c1S(=O)(=O)c1ccccc1 [1.2.2(1), 5-methyl-2-methylamino-3-phenylsulfonyl-pyrazolo[1,5-a]pyrimidine]

- IC50 [1]: 15 nM
SMILES: CNc1nn2c(CN)cc(C)nc2c1S(=O)(=O)c1ccccc1 [1.2.24(1).HCl]

- IC50 [1]: 13 nM
SMILES: CNc1nn2c(N(C)C)cc(-c3cccnc3)nc2c1S(=O)(=O)c1ccccc1 [1.2.12(9), 7-dimethylamino-2-methylamino-5-(pyridin-3-yl)-3-phenylsulfonyl-pyrazolo[1,5-a]pyrimidine]

- IC50 [1]: 12 nM
SMILES: CNc1nn2c(N(C)C)cc(C)nc2c1S(=O)(=O)c1ccccc1 [1.2.12(2), 7-dimethylamino-5-methyl-2-methylamino-3-phenylsulfonyl-pyrazolo[1,5-a]pyrimidine]

- IC50 [1]: 9 nM
SMILES: CNc1nn2c(NC)cc(C)nc2c1S(=O)(=O)c1ccccc1 [1.2.12(1), 2,7-di(methylamino)-5-methyl-3-phenylsulfonyl-pyrazolo[1,5-a]pyrimidine]

- IC50 [1]: 6 nM
SMILES: CNc1nn2c(C)c(N(C)C)c(C)nc2c1S(=O)(=O)c1ccccc1 [1.2.22(24).HCl]

- IC50 [1]: 4 nM
SMILES: CNc1nn2c(C)cc(COC)nc2c1S(=O)(=O)c1ccccc1 [1.2.5(1), 7-methyl-2-methylamino-5-(methoxymethyl)-3-phenylsulfonyl-pyrazolo[1,5-a]pyrimidine]

- IC50 [1]: 4 nM
SMILES: CNc1nn2c(C)cc(-c3ccncc3)nc2c1S(=O)(=O)c1ccccc1 [1.2.8(8), 7-methyl-2-methylamino-5-(pyridin-4-yl)-3-phenylsulfonyl-pyrazolo[1,5-a]pyrimidine]

- IC50 [1]: 4 nM
SMILES: CNc1nn2c(CO)cc(C)nc2c1S(=O)(=O)c1ccccc1 [1.2.6(1), 7-(hydroxymethyl)-5-methyl-2-methylamino-3-phenylsulfonyl-pyrazolo[1,5-a]pyrimidine]
